Reference: ChEMBL document CHEMBL1201862, “PubChem BioAssay data set” (2004)
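All cell lines were grown in 96-well plates and treated with compound for 48 hours. GI50: concentration for 50% inhibition of growth.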 Calls of active or inactive are those of the source. Cut-off read from the data, not from the text of the source: active = GI50 up to about 1.1 µM and inactive = higher.

How the values were obtained:
Assay in all cases: DTP human tumour cell line panel, 48 h
A498 = tested on: A498
CCRF-CEM = tested on: CCRF-CEM
HCC 2998 = tested on: HCC 2998
HOP-62 = tested on: HOP-62
K562 = tested on: K562
KM12 = tested on: KM12
LOX IMVI = tested on: LOX IMVI
MDA-MB-231 = tested on: MDA-MB-231
MDA-N = tested on: MDA-N
MOLT-4 = tested on: MOLT-4
NCI/ADR-RES = tested on: NCI/ADR-RES
OVCAR-8 = tested on: OVCAR-8
PC-3 = tested on: PC-3
RPMI-8226 = tested on: RPMI-8226
SF-268 = tested on: SF-268
SK-OV-3 = tested on: SK-OV-3
SN12C = tested on: SN12C
SNB-75 = tested on: SNB-75
UACC-257 = tested on: UACC-257
RXF 393 = tested on: RXF 393

SMILES | GI50 (A498) | GI50 (CCRF-CEM) | GI50 (HCC 2998) | GI50 (HOP-62) | GI50 (K562) | GI50 (KM12) | GI50 (LOX IMVI) | GI50 (MDA-MB-231) | GI50 (MDA-N) | GI50 (MOLT-4) | GI50 (NCI/ADR-RES) | GI50 (OVCAR-8) | GI50 (PC-3) | GI50 (RPMI-8226) | GI50 (SF-268) | GI50 (SK-OV-3) | GI50 (SN12C) | GI50 (SNB-75) | GI50 (UACC-257) | GI50 (RXF 393)
C/C=C/c1c(O)c(=O)c2c(OC)cc(OC)c3c4c(OC)cc(OC)c5c(=O)c(O)c(/C=C/C)c(c1c23)c54 | 32.6 µM (inactive) | 5.46 µM (inactive) | 16.6 µM (inactive) | 16.3 µM (inactive) | 3.4 µM (inactive) | 10.9 µM (inactive) | 8.55 µM (inactive) | 10.4 µM (inactive) | 6.87 µM (inactive) | 4.03 µM (inactive) | 14.5 µM (inactive) | 6.35 µM (inactive) | 6.37 µM (inactive) | 6.92 µM (inactive) | 7.66 µM (inactive) | 39.9 µM (inactive) | 16.5 µM (inactive) | 12.2 µM (inactive) | 16.5 µM (inactive) | 
O=C(O)CCC(NC(=O)c1ccc(Nc2nc3ccc(C(F)(F)F)cc3nc2C(=O)O)cc1)C(=O)O (stereo not drawn) | > 100 µM (inactive) | > 100 µM (inactive) | > 100 µM (inactive) | > 100 µM (inactive) | > 100 µM (inactive) | > 100 µM (inactive) | > 100 µM (inactive) | > 100 µM (inactive) | > 100 µM (inactive) | > 100 µM (inactive) | > 100 µM (inactive) | > 100 µM (inactive) | > 100 µM (inactive) | > 100 µM (inactive) | > 100 µM (inactive) |  | > 100 µM (inactive) | > 100 µM (inactive) | > 100 µM (inactive) | > 100 µM (inactive)
C[C@H](NC(=O)C(Cc1ccccc1)(Cc1ccc(O)cn1)NC(=O)c1ccccc1)c1ccccc1 (stereo partly drawn) | 18.1 µM (inactive) | 30.5 µM (inactive) | 16.5 µM (inactive) | 17.9 µM (inactive) | 34 µM (inactive) | 19.8 µM (inactive) | 14.8 µM (inactive) | 15.6 µM (inactive) | 15.5 µM (inactive) | 16.9 µM (inactive) | 17.4 µM (inactive) | 20.4 µM (inactive) | 14.2 µM (inactive) | 21.1 µM (inactive) | 18.2 µM (inactive) |  | 16.9 µM (inactive) |  | 17.7 µM (inactive) | 14.3 µM (inactive)
CC(=O)OCC1OC(n2c(-c3ccccc3)c(/N=N/c3ccc(C)cc3)c(C)c(C#N)c2=S)C(OC(C)=O)C(OC(C)=O)C1OC(C)=O (stereo not drawn) | 2.78 µM (inactive) | 11 µM (inactive) | 22.7 µM (inactive) | 18.7 µM (inactive) | 5.69 µM (inactive) | 8.28 µM (inactive) | 6 µM (inactive) | 17.7 µM (inactive) | 7.36 µM (inactive) | 3.67 µM (inactive) | 7.35 µM (inactive) |  | > 10 µM (inactive) | 8 µM (inactive) | 9.04 µM (inactive) |  | 6.35 µM (inactive) |  | 32.1 µM (inactive) | 16.2 µM (inactive)
CN(C)Cc1cc(C(=O)O)cc(CN(C)C)c1O | > 100 µM (inactive) | > 100 µM (inactive) | > 100 µM (inactive) | > 100 µM (inactive) | > 100 µM (inactive) | > 100 µM (inactive) | > 100 µM (inactive) | > 100 µM (inactive) | > 100 µM (inactive) |  | > 100 µM (inactive) | > 100 µM (inactive) | > 100 µM (inactive) | > 100 µM (inactive) | > 100 µM (inactive) | > 100 µM (inactive) | > 100 µM (inactive) | > 100 µM (inactive) | > 100 µM (inactive) | > 100 µM (inactive)
CCOc1cc(C2CC(c3ccc(NS(=O)(=O)c4cc([N+](=O)[O-])ccc4C)cc3)=NN2)ccc1O (stereo not drawn) | 22.3 µM (inactive) | 30.8 µM (inactive) |  |  | 24.5 µM (inactive) |  | 22.5 µM (inactive) | 25.5 µM (inactive) | 33.2 µM (inactive) | 17.5 µM (inactive) | 24.2 µM (inactive) | 44.5 µM (inactive) | 31 µM (inactive) | 24.6 µM (inactive) | 45.5 µM (inactive) |  | 20 µM (inactive) | 29.8 µM (inactive) |  | 18.6 µM (inactive)
COc1nc2c(c(=O)[nH]1)N=C(c1ccc(Cl)cc1)CC(c1ccccc1)N2 (stereo not drawn) | 33.3 µM (inactive) | 19.1 µM (inactive) | 34 µM (inactive) | 53.6 µM (inactive) | 28.1 µM (inactive) | 37.2 µM (inactive) | 22.5 µM (inactive) | 23.8 µM (inactive) | 31 µM (inactive) | 35.6 µM (inactive) | 23.8 µM (inactive) | 21.2 µM (inactive) | 43.5 µM (inactive) | 28.4 µM (inactive) |  |  | 22.7 µM (inactive) | 20.8 µM (inactive) | 36.8 µM (inactive) | 23.9 µM (inactive)
CC(=O)NC1=C(C)C(=O)c2c(nc3n2CC[C@H]3OC(C)=O)C1=O | 16.8 µM (inactive) | 0.33 µM (active) | 2.52 µM (inactive) | 10.8 µM (inactive) | 1.12 µM (active) | 1.71 µM (inactive) | 0.718 µM (active) | 1.37 µM (inactive) | 0.628 µM (active) | 0.243 µM (active) | 2.06 µM (inactive) | 1.55 µM (inactive) | 0.637 µM (active) | 1.36 µM (inactive) | 2.87 µM (inactive) |  | 1.49 µM (inactive) | 3.13 µM (inactive) | 1.01 µM (active) | 1.73 µM (inactive)
Cc1cn([C@H]2[C@@H](CO)C[C@H]2O)c(=O)[nH]c1=O | > 100 µM (inactive) | > 100 µM (inactive) | > 100 µM (inactive) | > 100 µM (inactive) | > 100 µM (inactive) | > 100 µM (inactive) | > 100 µM (inactive) | > 100 µM (inactive) | > 100 µM (inactive) | > 100 µM (inactive) | > 100 µM (inactive) | > 100 µM (inactive) | > 100 µM (inactive) | > 100 µM (inactive) | > 100 µM (inactive) |  | > 100 µM (inactive) | > 100 µM (inactive) | 50.4 µM (inactive) | > 100 µM (inactive)
CC(C)NC(=O)N(Nc1ccccc1)C(C)(C)C | > 100 µM (inactive) | > 100 µM (inactive) | > 100 µM (inactive) | > 100 µM (inactive) | > 100 µM (inactive) | > 100 µM (inactive) | > 100 µM (inactive) | > 100 µM (inactive) | > 100 µM (inactive) | > 100 µM (inactive) | > 100 µM (inactive) | > 100 µM (inactive) | > 100 µM (inactive) |  |  | > 100 µM (inactive) | > 100 µM (inactive) | 73.8 µM (inactive) | > 100 µM (inactive) | > 100 µM (inactive)
O=C(O)CSc1nc2ccccc2[nH]1 | > 100 µM (inactive) |  | > 100 µM (inactive) | > 100 µM (inactive) | > 100 µM (inactive) | > 100 µM (inactive) | > 100 µM (inactive) | > 100 µM (inactive) | > 100 µM (inactive) | 6.25 µM (inactive) | > 100 µM (inactive) | > 100 µM (inactive) | > 100 µM (inactive) |  | > 100 µM (inactive) |  | > 100 µM (inactive) | > 100 µM (inactive) | > 100 µM (inactive) | > 100 µM (inactive)
Cc1sc2ccccc2[n+]1CCC(=O)O | > 100 µM (inactive) |  |  | > 100 µM (inactive) | 6.67 µM (inactive) | > 100 µM (inactive) | > 100 µM (inactive) | > 100 µM (inactive) | > 100 µM (inactive) |  | > 100 µM (inactive) | > 100 µM (inactive) | > 100 µM (inactive) | > 100 µM (inactive) | > 100 µM (inactive) | > 100 µM (inactive) | > 100 µM (inactive) | > 100 µM (inactive) | > 100 µM (inactive) | > 100 µM (inactive)
CC1=NN(c2nc(N)nc(/C(C#N)=C\C3COc4ccccc4C3=O)n2)C(C)(C)C1 (stereo not drawn) | 17.9 µM (inactive) | 1.9 µM (inactive) | 30.4 µM (inactive) | 32.7 µM (inactive) | 32.1 µM (inactive) | 36.7 µM (inactive) | 27.2 µM (inactive) | 30.1 µM (inactive) | 18.9 µM (inactive) | 21.8 µM (inactive) | 15.9 µM (inactive) | 25.6 µM (inactive) | 24.4 µM (inactive) | 17.7 µM (inactive) | 21.1 µM (inactive) | 25.8 µM (inactive) |  |  | 51.4 µM (inactive) | 16.4 µM (inactive)
C1CCNCC1.Oc1ncnc2[nH]cc(CN3CCCCC3)c12 | > 100 µM (inactive) | 16.4 µM (inactive) |  | > 100 µM (inactive) | > 100 µM (inactive) | > 100 µM (inactive) | > 100 µM (inactive) | > 100 µM (inactive) | 30.4 µM (inactive) | 15.2 µM (inactive) | > 100 µM (inactive) | > 100 µM (inactive) | > 100 µM (inactive) | 22 µM (inactive) | 87.9 µM (inactive) | > 100 µM (inactive) | 48.8 µM (inactive) | 55.5 µM (inactive) | 21.5 µM (inactive) | 43.8 µM (inactive)
O=S(=O)(O)c1cc(O)c(/N=N/c2ccc3ccccc3c2O)c2ccccc12 [ERIOCHROME BLUE BLACK B] |  | 21.9 µM (inactive) |  | 30.3 µM (inactive) | 18 µM (inactive) | 30.4 µM (inactive) |  | 16.4 µM (inactive) | 5.06 µM (inactive) | 18 µM (inactive) | 15.6 µM (inactive) |  | 34.3 µM (inactive) | 41.7 µM (inactive) | 10.5 µM (inactive) | 31.6 µM (inactive) | 23.4 µM (inactive) | 16.7 µM (inactive) | 25.8 µM (inactive) | 80.9 µM (inactive)
